The numbers were not newly measured in US9114107B2, “Compositions for inhibiting virus entry and promoting virolysis, and methods thereof” (priority 2010, dated 2015), which cites them from elsewhere.

Structures are written as SMILES.

For this series, the system named is virus challenge. As to conditions: cited from earlier work.

Consider `COc1ccnc2[nH]cc(C(=O)C(=O)N3CCN(C(=O)c4ccccc4)C[C@H]3C)c12` [BMS-806, (R)-1-(4-benzoyl-2-methylpiperazin-1-yl)-2-(4-methoxy-1H-pyrrolo[2,3-b]pyridin-3-yl)ethane-1,2-dione], for which the “local irritation or inflammation of macaque vagina” value (biopsy after multiple applications) was “No local irritation or inflammation was observed”. For the same compound, the animals protected (macaques challenged with virus 2-6 hours after application) was 3 of 5.
